Drawing on ChEMBL document CHEMBL2407052, “7-Substituted-sulfocoumarins are isoform-selective, potent carbonic anhydrase II inhibitors” (Bioorg Med Chem, 2013), this text covers inhibition and Ki for 16 compounds.

Active and inactive are the calls of the source. No cut-off for these calls is given here. Some results are limits rather than exact numbers.

Assay [1] addresses T1, Carbonic anhydrase 9 (Homo sapiens, UniProt Q16790). Briefly: Inhibition of human transmembrane carbonic anhydrase 9 up to 50 uM after 6 hrs by stopped flow CO2 hydrase assay.
Assay [2] addresses T2, Carbonic anhydrase 1 (Homo sapiens, UniProt P00915). Briefly: Inhibition of human cytosolic carbonic anhydrase 1 after 6 hrs by stopped flow CO2 hydrase assay.
Target sequence in this assay (P00915 whole entry): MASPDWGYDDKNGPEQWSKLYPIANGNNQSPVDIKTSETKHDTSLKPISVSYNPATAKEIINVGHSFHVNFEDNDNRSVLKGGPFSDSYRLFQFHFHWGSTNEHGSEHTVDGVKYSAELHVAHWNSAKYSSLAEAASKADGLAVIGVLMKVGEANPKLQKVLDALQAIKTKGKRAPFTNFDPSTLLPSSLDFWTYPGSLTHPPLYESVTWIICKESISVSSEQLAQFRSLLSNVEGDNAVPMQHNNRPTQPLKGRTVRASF
In assay [3] the target is T2, Carbonic anhydrase 1. Briefly: Inhibition of human cytosolic carbonic anhydrase 1 up to 50 uM after 6 hrs by stopped flow CO2 hydrase assay.
Target sequence in this assay (P00915 2-261 limits assumed): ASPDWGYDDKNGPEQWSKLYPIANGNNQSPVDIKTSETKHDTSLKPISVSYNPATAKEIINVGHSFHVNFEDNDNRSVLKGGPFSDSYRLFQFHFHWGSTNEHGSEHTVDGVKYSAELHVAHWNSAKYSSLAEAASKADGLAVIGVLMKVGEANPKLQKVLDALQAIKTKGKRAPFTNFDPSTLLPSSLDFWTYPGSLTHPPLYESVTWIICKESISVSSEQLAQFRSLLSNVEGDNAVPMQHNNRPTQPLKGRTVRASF
Assay [4] concerns the target T1, Carbonic anhydrase 9. Briefly: Inhibition of human transmembrane carbonic anhydrase 9 after 6 hrs by stopped flow CO2 hydrase assay.
Another assay addresses Carbonic anhydrase 12 (Homo sapiens, UniProt O43570). The assay is described as follows: Inhibition of human transmembrane carbonic anhydrase 12 after 6 hrs by stopped flow CO2 hydrase assay.

Sequence of Carbonic anhydrase 12 (O43570 whole entry): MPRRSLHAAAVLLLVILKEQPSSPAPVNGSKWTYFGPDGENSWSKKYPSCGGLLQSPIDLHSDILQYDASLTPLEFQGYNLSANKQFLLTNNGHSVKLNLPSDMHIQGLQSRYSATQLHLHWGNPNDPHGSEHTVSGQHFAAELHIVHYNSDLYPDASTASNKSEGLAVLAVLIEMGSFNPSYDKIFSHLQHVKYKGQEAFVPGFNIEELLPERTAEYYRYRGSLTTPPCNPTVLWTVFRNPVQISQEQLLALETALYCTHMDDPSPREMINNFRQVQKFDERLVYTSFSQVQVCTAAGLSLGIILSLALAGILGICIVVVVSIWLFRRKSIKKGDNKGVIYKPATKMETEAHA

Consider `O=S1(=O)C=Cc2ccc(O)cc2O1`, for which the inhibition result on Carbonic anhydrase 9 [1] and at Carbonic anhydrase 1 [3] was “inactive” throughout. Moreover, the Ki on Carbonic anhydrase 1 [2], at Carbonic anhydrase 9 [4] and on Carbonic anhydrase 12 was greater than 10 µM throughout.
With `COc1ccc2c(c1)OS(=O)(=O)C=C2`, the inhibition entry at Carbonic anhydrase 9 [1] and on Carbonic anhydrase 1 [3] was “inactive” each time. Moreover, the Ki at Carbonic anhydrase 1 [2], on Carbonic anhydrase 9 [4] and on Carbonic anhydrase 12 was greater than 10 µM each time.
For the compound `CC(=O)Oc1ccc2c(c1)OS(=O)(=O)C=C2`, the inhibition entry on Carbonic anhydrase 9 [1] and on Carbonic anhydrase 1 [3] was “inactive” each time. Also, the Ki on Carbonic anhydrase 1 [2], on Carbonic anhydrase 9 [4] and on Carbonic anhydrase 12 was greater than 10 µM each time.
Consider `O=S1(=O)CC(O)c2ccc(O)cc2O1` (stereo not given), for which the inhibition entry at Carbonic anhydrase 9 [1] and on Carbonic anhydrase 1 [3] was “inactive” in each case. The Ki at Carbonic anhydrase 1 [2], at Carbonic anhydrase 9 [4] and on Carbonic anhydrase 12 was greater than 10 µM in each case.
In the case of `CS(=O)(=O)Oc1ccc2c(c1)OS(=O)(=O)C=C2`, the inhibition entry on Carbonic anhydrase 9 [1] and on Carbonic anhydrase 1 [3] was “inactive” throughout. Besides, the Ki on Carbonic anhydrase 1 [2], at Carbonic anhydrase 9 [4] and at Carbonic anhydrase 12 was greater than 10 µM in each case.
With `COc1ccc2c(c1)OS(=O)(=O)CC2`, the inhibition result on Carbonic anhydrase 9 [1] and on Carbonic anhydrase 1 [3] was “inactive” throughout. In addition, the Ki on Carbonic anhydrase 1 [2], on Carbonic anhydrase 9 [4] and at Carbonic anhydrase 12 was greater than 10 µM throughout.
Take `CC(=O)Oc1ccc2c(c1)OS(=O)(=O)CC2`: the inhibition entry at Carbonic anhydrase 9 [1] and at Carbonic anhydrase 1 [3] was “inactive” in each case. Further, the Ki at Carbonic anhydrase 1 [2], on Carbonic anhydrase 9 [4] and at Carbonic anhydrase 12 was greater than 10 µM in each case.
With `O=C(Cc1ccc(Cl)cc1)Oc1ccc2c(c1)OS(=O)(=O)C=C2`, the inhibition entry at Carbonic anhydrase 9 [1] and on Carbonic anhydrase 1 [3] was “inactive” throughout. The Ki on Carbonic anhydrase 1 [2], on Carbonic anhydrase 9 [4] and on Carbonic anhydrase 12 was greater than 10 µM in each case.
Take `O=S1(=O)CC(O)c2ccc(OCc3ccccc3)cc2O1` (racemic): the inhibition result on Carbonic anhydrase 9 [1] and at Carbonic anhydrase 1 [3] was “inactive” in each case. Further, the Ki at Carbonic anhydrase 1 [2], at Carbonic anhydrase 9 [4] and at Carbonic anhydrase 12 was greater than 10 µM throughout.
As to `O=C(Cc1ccc(Cl)cc1)Oc1ccc2c(c1)OS(=O)(=O)CC2`, the inhibition entry on Carbonic anhydrase 9 [1] and at Carbonic anhydrase 1 [3] was “inactive” throughout. Further, the Ki on Carbonic anhydrase 1 [2], at Carbonic anhydrase 9 [4] and on Carbonic anhydrase 12 was greater than 10 µM throughout.
As to `O=S1(=O)C=Cc2ccc(OCc3ccccc3)cc2O1`, the inhibition result on Carbonic anhydrase 9 [1] and at Carbonic anhydrase 1 [3] was “inactive” throughout. Moreover, the Ki on Carbonic anhydrase 1 [2], on Carbonic anhydrase 9 [4] and at Carbonic anhydrase 12 was greater than 10 µM throughout.
Take `O=S1(=O)CCc2ccc(O)cc2O1`: the inhibition entry at Carbonic anhydrase 9 [1] and at Carbonic anhydrase 1 [3] was “inactive” each time. In addition, the Ki on Carbonic anhydrase 1 [2], on Carbonic anhydrase 9 [4] and at Carbonic anhydrase 12 was greater than 10 µM in each case.
For the compound `CS(=O)(=O)Oc1ccc2c(c1)OS(=O)(=O)CC2`, the inhibition entry on Carbonic anhydrase 9 [1] and at Carbonic anhydrase 1 [3] was “inactive” in each case. For the same compound, the inhibition constant (Ki) on Carbonic anhydrase 1 [2], on Carbonic anhydrase 9 [4] and at Carbonic anhydrase 12 was greater than 10 µM throughout.
On to `O=S1(=O)CCc2ccc(OCc3ccccc3)cc2O1`, for which the inhibition result on Carbonic anhydrase 9 [1] and at Carbonic anhydrase 1 [3] was “inactive” each time. Moreover, the Ki on Carbonic anhydrase 1 [2], at Carbonic anhydrase 9 [4] and at Carbonic anhydrase 12 was greater than 10 µM in each case.
With `O=C(Cc1ccccc1Br)Oc1ccc2c(c1)OS(=O)(=O)C=C2`, the inhibition entry at Carbonic anhydrase 9 [1] and on Carbonic anhydrase 1 [3] was “inactive” in each case. In addition, the Ki on Carbonic anhydrase 1 [2], on Carbonic anhydrase 9 [4] and at Carbonic anhydrase 12 was greater than 10 µM throughout.
Take `O=C(Cc1ccccc1Br)Oc1ccc2c(c1)OS(=O)(=O)CC2`: the inhibition entry on Carbonic anhydrase 9 [1] and at Carbonic anhydrase 1 [3] was “inactive” throughout. The Ki at Carbonic anhydrase 1 [2], at Carbonic anhydrase 9 [4] and on Carbonic anhydrase 12 was greater than 10 µM in each case.

Usually Ki stands for a measure of affinity in units of concentration, obtained from inhibition or displacement. Low readings indicate a stronger hold on the target, high ones a looser hold on the target.
